Active and inactive are the calls of the source. No cut-off for these calls is given here.
What was measured:
[1] = target: Signal transducer and activator of transcription 3 (Homo sapiens) (UniProt P40763); assay: Inhibition of STAT3 phosphorylation at Tyr-705 residue in human MDA-MB-231 cells after 12 hrs by Western blot analysis; format: cell-based
[2] = Solubility of the compound in 0.1% DMSO; format: physicochemical
[3] = target: Signal transducer and activator of transcription 3 (Homo sapiens) (UniProt P40763); assay: Inhibition of IL-6-stimulated STAT3 phosphorylation at Tyr-705 residue in human MDA-MB-231 cells at 1 to 4 uM preincubated for 2 hrs followed by IL-6 stimulation measured after 30 mins by Western blot analysis; format: cell-based
[4] = target: Signal transducer and activator of transcription 3 (Homo sapiens) (UniProt P40763); assay: Inhibition of STAT3 phosphorylation at Tyr-705 residue in human MDA-MB-231 cells at 8 to 10 uM after 12 hrs by Western blot analysis; format: cell-based
A549 [5] = assay: […] of beta-tubulin polymerization in human A549 cells at 1 uM after 12 to 24 hrs by DAPI staining based confocal microscopic method; format: cell-based
A549 [6] = assay: Inhibition of beta-tubulin polymerization in human A549 cells at 1 uM after 12 to 24 hrs by DAPI staining based confocal microscopic method; format: cell-based

Sequence of Signal transducer and activator of transcription 3 (Homo sapiens) (P40763 whole entry): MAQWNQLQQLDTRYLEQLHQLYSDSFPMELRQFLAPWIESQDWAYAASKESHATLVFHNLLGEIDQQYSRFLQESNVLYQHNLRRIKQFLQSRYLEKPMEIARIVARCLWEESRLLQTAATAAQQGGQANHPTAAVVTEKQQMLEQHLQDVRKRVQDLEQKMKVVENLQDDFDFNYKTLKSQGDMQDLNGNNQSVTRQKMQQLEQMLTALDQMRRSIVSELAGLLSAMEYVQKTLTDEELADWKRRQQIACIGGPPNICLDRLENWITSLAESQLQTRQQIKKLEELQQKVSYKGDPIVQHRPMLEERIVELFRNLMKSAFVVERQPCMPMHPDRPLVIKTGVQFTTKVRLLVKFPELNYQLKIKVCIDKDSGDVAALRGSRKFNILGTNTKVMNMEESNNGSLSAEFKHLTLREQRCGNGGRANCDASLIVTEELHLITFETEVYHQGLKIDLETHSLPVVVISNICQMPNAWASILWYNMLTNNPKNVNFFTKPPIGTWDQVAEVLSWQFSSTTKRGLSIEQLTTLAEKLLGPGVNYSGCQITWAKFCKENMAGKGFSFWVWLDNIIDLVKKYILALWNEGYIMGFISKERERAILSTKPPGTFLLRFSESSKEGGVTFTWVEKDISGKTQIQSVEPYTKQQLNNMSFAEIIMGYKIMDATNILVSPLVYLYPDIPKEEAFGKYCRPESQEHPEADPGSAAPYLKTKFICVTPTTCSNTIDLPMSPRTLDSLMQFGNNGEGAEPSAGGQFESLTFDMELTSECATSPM

Q: For `COc1ccc(S(=O)(=O)n2ccc3cccc(Nc4ccc(C#N)c(F)c4)c32)cc1`, which inhibition [1] is on record?
A: Its inhibition is “Dose-dependent effect”.

Q: Which solubility [2] does the source give for `COc1ccc(S(=O)(=O)n2cc(Cl)c3cccc(-c4ccc(Cl)cc4)c32)cc1` here?
A: Its solubility is “Insoluble”.

Q: For `COc1ccc(S(=O)(=O)n2ccc3cccc(-c4ccc(C#N)c(F)c4)c32)cc1`, which inhibition [3] is on record?
A: The inhibition was “Active”.

Q: What about the inhibition [1] of the same molecule?
A: Its inhibition is “Dose-dependent effect”.

Q: With `O=C(C1=Cc2cc(Br)ccc2S1(=O)=O)N1CCCCC1` as the molecule, how does the inhibition [4] read?
A: Its inhibition is “Active”.

Q: Which Activity (A549 [5]) does the source give for `CC(=O)O[C@H]1C(=O)[C@@]2(C)[C@H]([C@H](OC(=O)c3ccccc3)[C@]3(O)C[C@H](OC(=O)[C@H](O)[C@@H](NC(=O)c4ccccc4)c4ccccc4)C(C)=C1C3(C)C)[C@]1(OC(C)=O)CO[C@@H]1C[C@@H]2O` here?
A: The Activity was “Active”.

Q: With `COc1ccc(S(=O)(=O)n2ccc3cccc(-c4ccc(S(C)(=O)=O)cc4)c32)cc1` as the molecule, how does the inhibition [1] read?
A: The inhibition was “Dose-dependent effect”.

Q: For `COc1cc2c(c(OC)c1OC)-c1ccc(OC)c(=O)cc1[C@@H](NC(C)=O)CC2`, which inhibition (A549 [6]) is on record?
A: The inhibition was “Active”.
